Test results reported in US8309612B2, “Method for treating age-related macular degeneration” (Santen Pharmaceutical Co., Ltd., priority 2007, dated 2012).

Assays:
[1] = test system: choroidal neovascularization; assay: Rat model of krypton laser-induced choroidal neovascularization; type: in vivo; details: for Inhibition rate (%): BID, oral, 12 days, choroidal neovascularization incidence on day 7 after photocoagulation vs vehicle
Method: The usefulness of Ebselen was evaluated using a rat model of laser-induced choroidal neovascularization.
A rat was given general anesthesia by intramuscular administration of 1 ml/kg of a mixed solution of a 5% (w/v) ketamine hydrochloride injection solution and a 2% xylazine hydrochloride injection solution (7:1), and a 0.5% (w/v) tropicamide-0.5% phenylephrine hydrochloride ophthalmic solution was instilled into the eyes to cause mydriasis, and then, photocoagulation was performed with a krypton laser photocoagulation apparatus. The photocoagulation was performed in a posterior fundus at eight spots per eye sparsely by focusing on the retinal deep layer avoiding thick retinal blood vessels (coagulation conditions: spot size: 100 μm, output: 100 mW, coagulation time: 0.1 sec). After the photocoagulation, the ocular fundus was photographed, and the site where the laser was irradiated was confirmed. […]
On day 7 after photocoagulation, each rat was given general anesthesia by intramuscular administration of 1 ml/kg of a mixed solution of a 5% (w/v) ketamine hydrochloride injection solution and a 2% xylazine hydrochloride injection solution (7:1), and a 0.5% (w/v) tropicamide-0.5% phenylephrine hydrochloride ophthalmic solution was instilled into the eyes to cause mydriasis, and then, 0.1 ml of a 10% fluorescein solution was injected into the tail vein, and fluorescence fundus photography was performed. In the fluorescence fundus photography, a spot where fluorescence leakage was not observed (absence of neovascularization) was judged as negative, and a spot where fluorescence leakage was observed was judged as positive. When there are two photocoagulation sites where a little fluorescence leakage was observed, they were judged as positive (presence of neovascularization). The choroidal neovascularization incidence rate (%) was calculated from the number of positive spots relative to the eight laser irradiation spots in accordance with Equation 1, and the inhibition rate (%) of the drug to be evaluated was calculated in accordance with Equation 2. […]

[2] = test system: ARPE-19 cells (a human retinal pigment epithelial cell line); assay: Protective effect on hydrogen peroxide-induced cell damage in ARPE-19 cells; type: cell-based; details: for Cell protective effect on hydrogen peroxide-induced cell damage (in words): 6.25 μM or 12.5 μM, hydrogen peroxide 250 μM
Method: Oxidative stress causes retinal pigment epithelial dysfunction and is considered to be one of the causes of development or progression of AMD (Proc. Natl. Acad. Sci. USA, 2006; 103: 11282-11287). Therefore, by using ARPE-19 cells (a human retinal pigment epithelial cell line), the protective effect of Ebselen on hydrogen peroxide-induced cell damage was evaluated. In addition, the effects of quercetin and edaravone which are compounds generally known to have an antioxidative activity were also evaluated at the same time, and comparison study was performed.
(§1) ARPE-19 cells were seeded in a 96-well plate at 5×10^3 cells/well and cultured for 24 hours under the conditions of 37° C. in a 5% CO2/95% air atmosphere. As a culture medium for ARPE-19, DMEM/F12 containing 10% fetal bovine serum, 2 mM L-glutamine and 100 U/mL penicillin and 100 μg/mL streptomycin was used. Subsequently, the culture medium was removed and exchanged with a culture medium containing Ebselen, quercetin or edaravone, or a vehicle culture medium. Incidentally, each compound was dissolved in DMSO and diluted to 1000-fold with the culture medium to prepare a culture medium containing each compound at 6.25 μM or 12.5 μM. The vehicle culture medium was prepared by diluting DMSO without containing the compound to 1000-fold with the culture medium. After the cells were cultured for 24 hours under the conditions of 37° C. in a 5% CO2/95% air atmosphere, the culture medium was removed and exchanged with a culture medium containing hydrogen peroxide (250 μM). After the cells were further cultured for 24 hours under the above-mentioned conditions, the cell viability was measured. In the measurement, Cell Counting Kit-8 (Dojin Kagaku) was used.
(§2) The mean±the standard error (%) of the cell viability of each compound-treated group was expressed by taking the mean value of the cell viability of the untreated cells as 100%. The case number in each group is 4.

ARPE-19 cells = assay: Protective effect on HNE-induced cell damage in ARPE-19 cells; type: cell-based, human; details: for Cell protective effect on HNE-induced cell damage (in words): 12.5 μM, HNE 100 μM
Description: It is known that reactive oxygen species promote membrane lipid peroxidation, resulting in production of HNE (Exp. Eye. Res., 2006; 83: 165-175). HNE forms a covalent bond with a cysteine, lysine or histidine side chain of a protein and inhibits the normal function of the protein, and therefore has a high cytotoxic activity (Invest. Opthalmol. Vis. Sci. 2007; 48: 3469-3479). It is reported that an HNE-modified protein is present also in drusen beneath the retina which is considered to be a deposit inducing AMD, and it is considered to cause retinal pigment epithelial cell damage and also considered to be one of the causes of development or progression of a disease attributed to retinal pigment epithelial damage (Mol. Vis., 2005; 11: 1122-1134, Invest. Opthalmol. Vis. Sci., 2003; 44: 3663-3668, FEBS Lett., 2002; 528: 217-221). Therefore, by using ARPE-19 cells, the protective effect of Ebselen on HNE-induced cell damage was evaluated. In addition, the effects of quercetin and edaravone which are compounds generally known to have an antioxidative activity were also evaluated at the same time, and comparison study was performed.
as §1, with “at” for “at 6.25 μM or”, “HNE (100” for “hydrogen peroxide (250”
as §2

[3] = test system: ischemia-induced neovascularization in hindlimb tissues; details: hindlimb tissues of mice; cited from earlier work
[4] = test system: carotid artery remodeling and neovascularization; details: p22phox transgenic mice; cited from earlier work
renal neovascularization = details: ZDF rats, repeated administration; cited from earlier work

SMILES	Inhibition rate (%) ([1]; each dose: 5 mg/kg)	Inhibition rate (%) ([1]; each dose: 15 mg/kg)	Effect on choroidal neovascularization (in words) ([1]; rat models of laser-induced choroidal neovascularization, 5 or 15 mg/kg BID oral)	Cell protective effect on hydrogen peroxide-induced cell damage (in words) [2]	Cell protective effect on HNE-induced cell damage (in words) (ARPE-19 cells)	Effect on ischemia-induced neovascularization (in words) [3]	Effect on carotid artery remodeling and neovascularization (in words) [4]	Effect on renal neovascularization (in words) (renal neovascularization)	viability at 6.25 µM ([2]; Homo sapiens, ARPE-19, compound 6.25 μM, 24 h pretreatment, then hydrogen peroxide 250 μM 24 h, untreated cells = 100%, mean ± standard error) [%]	viability at 12.5 µM ([2]; Homo sapiens, ARPE-19, compound 12.5 μM, 24 h pretreatment, then hydrogen peroxide 250 μM 24 h, untreated cells = 100%, mean ± standard error) [%]	viability at 12.5 µM (ARPE-19 cells; Homo sapiens, ARPE-19, compound 12.5 μM, 24 h pretreatment, then HNE 100 μM 24 h, untreated cells = 100%, mean ± standard error) [%]
O=c1c2ccccc2[se]n1-c1ccccc1 [Ebselen, 2-phenyl-1,2-benzisoselenazol-3(2H)-one]	26.9	28.9	inhibits choroidal neovascularization	strongly protected the cells against hydrogen peroxide-induced cell damage in a concentration-dependent manner	strongly protected the cells against HNE-induced cell damage	inhibited ischemia-induced neovascularization	inhibited endogenous hydrogen peroxide-induced carotid artery remodeling and neovascularization	renal neovascularization was restored	–	–	–
CC1=NN(c2ccccc2)C(=O)C1 [Edaravone, edaravone]	–	–	–	not found to have a cell protective effect at either concentration	not found to have a cell protective effect	–	–	–	–	–	–
O=c1c(O)c(-c2ccc(O)c(O)c2)oc2cc(O)cc(O)c12 [Quercetin, quercetin]	–	–	–	not found to have a cell protective effect at either concentration	not found to have a cell protective effect	–	–	–	8 ± 0.1	3.8 ± 0.4	28.6 ± 0.9
